Measurements reported in ChEMBL document CHEMBL5214965, “Synthesis and antidepressant activity of novel 1-(1-benzoylpiperidin-4-yl) methanamine derivatives selectively targeting SSRI/5-HT1A” (Bioorg Med Chem Lett, 2022).
The source made the active and inactive calls. The calls are words filed in the database; no cut-off is given here.

Key:
[1] = target: T1, 5-hydroxytryptamine receptor 1A (Homo sapiens) (UniProt P08908); assay: Displacement of [3H][…] from 5-HT1A receptor in human HEK293 cells at 1 uM measured after 60 mins by scintillation counting method relative to control; format: cell-based
T1 sequence (whole entry): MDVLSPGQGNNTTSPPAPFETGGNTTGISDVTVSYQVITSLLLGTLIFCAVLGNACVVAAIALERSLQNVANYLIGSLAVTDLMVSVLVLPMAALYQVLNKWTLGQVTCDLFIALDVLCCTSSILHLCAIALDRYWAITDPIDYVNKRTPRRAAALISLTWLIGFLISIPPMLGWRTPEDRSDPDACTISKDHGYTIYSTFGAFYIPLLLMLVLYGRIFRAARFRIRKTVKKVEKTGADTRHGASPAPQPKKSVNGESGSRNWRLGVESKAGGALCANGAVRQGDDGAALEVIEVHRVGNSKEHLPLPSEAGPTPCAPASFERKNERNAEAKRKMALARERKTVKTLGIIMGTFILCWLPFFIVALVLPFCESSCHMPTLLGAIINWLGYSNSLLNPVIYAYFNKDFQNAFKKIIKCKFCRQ

[2] = target: Sodium-dependent serotonin transporter (Rattus norvegicus) (UniProt P31652); assay: Inhibition of serotonin transporter in rat brain tissue assessed as inhibition of [3H]-5-hydroxytryptamine reuptake at 1 uM relative to control; format: tissue-based
Sequence of Sodium-dependent serotonin transporter (Rattus norvegicus) (P31652 whole entry): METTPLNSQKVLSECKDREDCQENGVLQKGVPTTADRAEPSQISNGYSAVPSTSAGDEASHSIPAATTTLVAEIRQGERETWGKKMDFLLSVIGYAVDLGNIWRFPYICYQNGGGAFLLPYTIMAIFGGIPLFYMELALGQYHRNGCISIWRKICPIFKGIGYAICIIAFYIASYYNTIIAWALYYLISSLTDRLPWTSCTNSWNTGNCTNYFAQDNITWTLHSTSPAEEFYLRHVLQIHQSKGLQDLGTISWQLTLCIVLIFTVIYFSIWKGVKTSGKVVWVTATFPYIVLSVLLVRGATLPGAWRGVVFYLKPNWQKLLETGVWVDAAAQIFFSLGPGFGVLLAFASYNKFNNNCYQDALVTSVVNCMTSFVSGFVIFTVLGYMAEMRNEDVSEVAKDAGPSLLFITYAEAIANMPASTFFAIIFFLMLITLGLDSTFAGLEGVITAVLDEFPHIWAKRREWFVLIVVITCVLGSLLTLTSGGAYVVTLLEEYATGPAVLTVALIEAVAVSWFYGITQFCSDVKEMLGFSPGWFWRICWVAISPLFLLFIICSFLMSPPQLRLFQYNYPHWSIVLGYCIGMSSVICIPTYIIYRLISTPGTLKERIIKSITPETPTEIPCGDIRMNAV

[3] = in vitro; details: human, liver microsomes
Description: Metabolic stability in human liver microsomes assessed as clearance

[4] = in vitro; details: human, liver microsomes; remark: listed apart in the source
[5] = in vitro; details: mouse, liver microsomes
Description: Metabolic stability in mouse liver microsomes assessed as half life

[6] = in vitro; details: mouse, liver microsomes; remark: listed apart in the source
Description: Metabolic stability in mouse liver microsomes assessed as clearance

[7] = target: T2, 5-hydroxytryptamine receptor 1A (Homo sapiens, UniProt P08908); assay: Displacement of [3H][…] from 5-HT1A receptor in human HEK293 cells measured after 60 mins by scintillation counting method; format: cell-based
T2 sequence (P08908 whole entry): T1 sequence (whole entry)

[8] = target: Sodium-dependent serotonin transporter (Rattus norvegicus, UniProt P31652); assay: Inhibition of serotonin transporter in rat brain tissue assessed as inhibition of [3H]-5-hydroxytryptamine reuptake; format: tissue-based
Sequence of Sodium-dependent serotonin transporter (P31652 whole entry): as above

[9] = test system: Mus musculus; assay: Antidepressant activity in ICR mouse assessed as reduction in immobility time at 0.6 mg/kg, po for 7 days by forced swimming test; format: functional; set-up: scale not given: the % may be the effect or the level left; details: time 7 day
[10] = target: 5-hydroxytryptamine receptor 1D (Homo sapiens) (UniProt P28221); assay: Inhibition of 5-HT1D receptor (unknown origin); details: concentration not given here
Sequence of 5-hydroxytryptamine receptor 1D (Homo sapiens) (P28221 whole entry): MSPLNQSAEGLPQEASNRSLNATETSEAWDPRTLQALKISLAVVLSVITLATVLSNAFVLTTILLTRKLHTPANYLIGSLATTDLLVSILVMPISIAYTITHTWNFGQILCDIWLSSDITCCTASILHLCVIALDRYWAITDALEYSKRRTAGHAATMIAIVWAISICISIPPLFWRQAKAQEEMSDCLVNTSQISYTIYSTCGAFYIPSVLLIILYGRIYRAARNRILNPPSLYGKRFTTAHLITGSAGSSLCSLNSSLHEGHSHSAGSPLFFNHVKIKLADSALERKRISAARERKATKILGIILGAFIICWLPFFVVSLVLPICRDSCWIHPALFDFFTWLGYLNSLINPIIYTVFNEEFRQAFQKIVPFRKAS

[11] = test system: Mus musculus; assay: Antidepressant activity in ICR mouse assessed as reduction in immobility time at 0.6 mg/kg, po for 7 days by tail suspension test; format: functional; set-up: scale not given: the % may be the effect or the level left; details: time 7 day
[12] = target: 5-hydroxytryptamine receptor 2A (Homo sapiens) (UniProt P28223); assay: Inhibition of 5-HT2A receptor (unknown origin); details: concentration not given here
Sequence of 5-hydroxytryptamine receptor 2A (Homo sapiens) (P28223 whole entry): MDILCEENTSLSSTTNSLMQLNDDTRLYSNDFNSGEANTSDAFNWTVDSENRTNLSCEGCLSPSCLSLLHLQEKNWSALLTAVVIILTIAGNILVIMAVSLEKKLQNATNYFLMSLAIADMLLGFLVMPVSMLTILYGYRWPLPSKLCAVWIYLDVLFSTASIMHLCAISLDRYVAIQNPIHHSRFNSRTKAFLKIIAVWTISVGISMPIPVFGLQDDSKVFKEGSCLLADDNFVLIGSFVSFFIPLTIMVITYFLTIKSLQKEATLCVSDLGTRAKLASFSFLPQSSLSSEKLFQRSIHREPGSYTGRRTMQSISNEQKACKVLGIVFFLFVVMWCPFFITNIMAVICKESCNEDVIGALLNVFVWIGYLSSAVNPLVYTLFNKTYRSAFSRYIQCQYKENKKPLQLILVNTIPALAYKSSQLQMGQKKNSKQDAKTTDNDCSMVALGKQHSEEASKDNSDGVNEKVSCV

[13] = organism: Homo sapiens; assay: Inhibition of 5-HT7 receptor (unknown origin); details: concentration not given here
[14] = test system: Mus musculus; assay: Antidepressant activity in ICR mouse assessed as reduction in immobility time at 0.6 to 80 mg/kg, po for 7 days by forced swimming test; format: functional, organism-based; details: dose 0.6-80 mg/kg, time 7.0 day
[15] = Binding affinity to 5-HT6 receptor (unknown origin) assessed as inhibition constant; set-up: species or system Homo sapiens
[16] = organism: Homo sapiens; assay: Inhibition of 5-HT6 receptor (unknown origin); details: concentration not given here
[17] = test system: Mus musculus; assay: Antidepressant activity in ICR mouse assessed as reduction in immobility time at 10 mg/kg, po for 7 days by tail suspension test; format: functional; set-up: scale not given: the % may be the effect or the level left; details: time 7 day
[18] = target: 5-hydroxytryptamine receptor 1B (Homo sapiens) (UniProt P28222); assay: Inhibition of 5-HT1B receptor (unknown origin); details: concentration not given here
Sequence of 5-hydroxytryptamine receptor 1B (Homo sapiens) (P28222 whole entry): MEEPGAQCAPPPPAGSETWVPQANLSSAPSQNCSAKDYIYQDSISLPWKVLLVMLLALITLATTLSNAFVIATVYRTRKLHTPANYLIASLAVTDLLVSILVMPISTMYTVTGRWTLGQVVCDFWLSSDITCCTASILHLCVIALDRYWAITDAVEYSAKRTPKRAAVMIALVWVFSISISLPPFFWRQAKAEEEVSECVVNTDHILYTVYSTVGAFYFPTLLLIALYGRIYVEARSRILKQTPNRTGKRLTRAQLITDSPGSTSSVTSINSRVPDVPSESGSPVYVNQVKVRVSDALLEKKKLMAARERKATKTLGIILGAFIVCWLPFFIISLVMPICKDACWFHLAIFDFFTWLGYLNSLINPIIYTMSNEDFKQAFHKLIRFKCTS

[19] = target: Serotonin 3 (5-HT3) receptor (Homo sapiens) (UniProt P46098+A5X5Y0+O95264+Q70Z44+Q8WXA8); assay: Inhibition of 5-HT3 receptor (unknown origin); format: protein-complex assay; details: concentration not given here
[20] = Binding affinity to 5-HT7 receptor (unknown origin) assessed as inhibition constant; set-up: species or system Homo sapiens
[21] = target: T3, 5-hydroxytryptamine receptor 2C (Homo sapiens) (UniProt P28335); assay: Inhibition of 5-HT2C receptor (unknown origin); details: concentration not given here
T3 sequence (whole entry): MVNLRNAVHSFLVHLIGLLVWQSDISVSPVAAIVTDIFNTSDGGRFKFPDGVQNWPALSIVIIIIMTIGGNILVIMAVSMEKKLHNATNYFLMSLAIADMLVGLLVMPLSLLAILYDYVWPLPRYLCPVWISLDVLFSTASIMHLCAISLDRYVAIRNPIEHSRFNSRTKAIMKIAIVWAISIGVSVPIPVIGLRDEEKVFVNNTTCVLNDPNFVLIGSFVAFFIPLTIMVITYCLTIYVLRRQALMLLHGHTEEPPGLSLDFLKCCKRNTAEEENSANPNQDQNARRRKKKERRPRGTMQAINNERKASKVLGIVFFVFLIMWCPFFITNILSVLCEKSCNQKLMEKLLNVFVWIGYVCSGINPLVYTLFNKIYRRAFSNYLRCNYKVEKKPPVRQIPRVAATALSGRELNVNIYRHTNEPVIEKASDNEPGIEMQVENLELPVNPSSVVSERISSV

| Compound | inhibition [1] [%] | inhibition [2] [%] | microsomal CLint [3] [µL/min/mg] | half-life [4] [min] | half-life [5] [min] | microsomal CLint [6] [µL/min/mg] | also measured |
| --- | --- | --- | --- | --- | --- | --- | --- |
| O=C(c1ccc(F)c(Cl)c1)N1CCC(CNCCCCCc2c[nH]c3ccc(F)cc23)CC1 | 92 | 101 | – | – | – | – | – |
| Cc1ccc(C(=O)N2CCC(CNCCCc3c[nH]c4ccc(F)cc34)CC2)cc1 | 99 | 99 | 310 | 4.48 | – | – | – |
| N#Cc1ccc2[nH]cc(CCCCN3CCN(c4ccc5oc(C(N)=O)cc5c4)CC3)c2c1 [VILAZODONE] | – | – | 51.6 | 26.9 | 23.1 | 60.6 | – |
| NC(=O)c1cccc(C(=O)N2CCC(CNCCCc3c[nH]c4ccc(F)cc34)CC2)c1 | 98 | 102 | 9 | 154 | 277 | 5 | – |
| O=C(c1ccc(F)c(Cl)c1)N1CCC(CNCCCCc2c[nH]c3ccc(F)cc23)CC1 | 99 | 103 | 118 | 11.7 | 45 | 30.8 | – |
| CN(CCCc1c[nH]c2ccc(F)cc12)CC1CCN(C(=O)c2ccc(F)c(Cl)c2)CC1 | 94 | 102 | – | – | – | – | – |
| N#Cc1ccc2[nH]cc(CCCNCC3CCN(C(=O)c4ccc(F)c(Cl)c4)CC3)c2c1 | 100 | 103 | 113 | 12.2 | – | – | – |
| O=C(c1ccc(Cl)c(Cl)c1)N1CCC(CNCCCc2c[nH]c3ccc(F)cc23)CC1 | 100 | 101 | 45.4 | 30.5 | 30.8 | 44.9 | Ki ([7]; read-out: Ki): 0.097 nM; IC50 [8]: 17 nM |
| O=C(c1ccc(F)c(Cl)c1)N1CCC(CNCCCc2c[nH]c3ccc(F)cc23)CC1 | 99 | 101 | 51.8 | 26.8 | 61.6 | 22.5 | Activity [9]: 34%; inhibition [10]: < 75%; Ki ([7]; read-out: Ki): 0.069 nM; Activity [11]: 19%; inhibition [12]: < 75%; inhibition [13]: 86.5%; Activity [14]: Active; Ki [15]: 150 nM; inhibition [16]: 82%; IC50 [8]: 8.2 nM; Activity [17]: 24%; inhibition [18]: < 75%; inhibition [19]: < 75%; Ki [20]: 36 nM; inhibition [21]: < 75% |
| Cc1cc(C(=O)N2CCC(CNCCCc3c[nH]c4ccc(F)cc34)CC2)ccc1F | 100 | 103 | 559 | 3.86 | – | – | – |
| CCCN(CCCc1c[nH]c2ccc(F)cc12)CC1CCN(C(=O)c2ccc(F)c(Cl)c2)CC1 | 86 | 101 | – | – | – | – | – |
| Fc1ccc(N2CCN(CCCc3c[nH]c4ccc(F)cc34)CC2)c(-c2ccccc2)c1 | – | – | – | – | – | – | Ki ([7]; read-out: Ki): 12 nM; IC50 [8]: 177 nM |
| O=C(c1ccc(F)cc1)N1CCC(CNCCCc2c[nH]c3ccc(F)cc23)CC1 | 100 | 101 | 84.3 | 16.4 | – | – | – |
| O=C(c1ccc(F)c(F)c1)N1CCC(CNCCCc2c[nH]c3ccc(F)cc23)CC1 | 99 | 103 | 71.2 | 19.5 | – | – | – |
| O=C(c1ccc(F)c(Cl)c1)N1CCC(CNCc2cccc(-n3cccn3)n2)CC1 | – | – | – | – | – | – | Ki [7]: 1.54 nM |
| O=C(c1ccc(F)c(Cl)c1)N1CCC(NCCCc2c[nH]c3ccc(F)cc23)CC1 | 96 | 102 | – | – | – | – | – |
| Fc1ccc(OCCN2CCC(c3c[nH]c4ccc(F)cc34)CC2)c(-c2ccccc2)c1 | – | – | – | – | – | – | Ki ([7]; read-out: Ki): 0.2 nM; IC50 [8]: 0.5 nM |
| NC(=O)c1ccc(C(=O)N2CCC(CNCCCc3c[nH]c4ccc(F)cc34)CC2)cc1 | 98 | 100 | 4.2 | 330 | 102 | 13.6 | – |
| O=C(c1ccc(Cl)cc1)N1CCC(CNCCCc2c[nH]c3ccc(F)cc23)CC1 | 100 | 103 | 70.9 | 19.5 | – | – | – |
| NC(=O)c1ccccc1C(=O)N1CCC(CNCCCc2c[nH]c3ccc(F)cc23)CC1 | 98 | 102 | 138 | 10 | 13.2 | 105 | – |
| O=C(c1ccc(F)c(Cl)c1)N1CCC(CNCCc2c[nH]c3ccc(F)cc23)CC1 | 93 | 101 | – | – | – | – | – |
| O=C(c1cccc(Cl)c1)N1CCC(CNCCCc2c[nH]c3ccc(F)cc23)CC1 | 101 | 103 | 153 | 9.07 | 27.8 | 49.8 | – |
